The structures appear in SMILES notation.

Chain of EXON 20 Insertion(NPG) Ba/F3 Cell (P00533 with tags, fused parts or gaps INS772GNP): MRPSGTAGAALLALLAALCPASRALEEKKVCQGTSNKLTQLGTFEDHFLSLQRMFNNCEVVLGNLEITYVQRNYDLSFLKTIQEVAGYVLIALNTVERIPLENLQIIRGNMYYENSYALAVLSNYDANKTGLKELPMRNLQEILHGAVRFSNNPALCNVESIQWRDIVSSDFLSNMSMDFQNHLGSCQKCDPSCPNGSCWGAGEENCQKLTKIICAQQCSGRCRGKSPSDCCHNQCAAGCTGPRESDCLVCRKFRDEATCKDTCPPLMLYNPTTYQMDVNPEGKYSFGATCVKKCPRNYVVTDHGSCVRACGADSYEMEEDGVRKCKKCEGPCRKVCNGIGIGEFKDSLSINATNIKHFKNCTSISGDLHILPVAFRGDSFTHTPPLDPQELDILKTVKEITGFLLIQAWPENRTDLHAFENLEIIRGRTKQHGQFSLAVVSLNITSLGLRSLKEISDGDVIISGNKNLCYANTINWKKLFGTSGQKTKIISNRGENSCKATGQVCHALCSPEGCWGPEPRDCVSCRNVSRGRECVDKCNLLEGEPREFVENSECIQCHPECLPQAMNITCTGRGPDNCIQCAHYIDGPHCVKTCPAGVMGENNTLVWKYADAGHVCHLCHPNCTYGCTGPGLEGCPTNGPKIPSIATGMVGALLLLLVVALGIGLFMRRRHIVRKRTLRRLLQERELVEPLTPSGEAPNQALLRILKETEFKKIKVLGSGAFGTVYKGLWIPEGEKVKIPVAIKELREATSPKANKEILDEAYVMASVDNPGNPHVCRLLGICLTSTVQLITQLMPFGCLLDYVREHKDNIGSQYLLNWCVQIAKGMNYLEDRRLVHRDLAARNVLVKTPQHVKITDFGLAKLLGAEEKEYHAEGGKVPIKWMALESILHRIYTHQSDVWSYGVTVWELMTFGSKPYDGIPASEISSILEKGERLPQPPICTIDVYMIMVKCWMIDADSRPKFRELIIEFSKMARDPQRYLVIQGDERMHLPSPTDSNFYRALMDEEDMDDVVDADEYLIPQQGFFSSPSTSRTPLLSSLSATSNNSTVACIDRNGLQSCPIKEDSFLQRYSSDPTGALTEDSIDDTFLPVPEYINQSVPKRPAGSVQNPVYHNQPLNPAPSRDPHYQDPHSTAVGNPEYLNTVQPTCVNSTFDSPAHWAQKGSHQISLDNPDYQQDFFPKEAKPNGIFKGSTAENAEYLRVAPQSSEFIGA

This experiment concerns the target EXON 20 Insertion(NPG) Ba/F3 Cell (Homo sapiens, UniProt P00533, INS772GNP, cells depend on it). Briefly: Measurement of cancer cell growth inhibitory effect (MTT assay). It is filed as cell-based, Murine. To be noted: Ba/F3 cells expressing EGFR with NPG added at D770_N771, 72 hours treatment, read at 595 nm, read-out: EXON 20 Insertion(NPG) Ba/F3 Cell(IC50). The source says:
Since there is no commercially available lung cancer cell line with EGFR insertion mutation, a method of inserting 3 to 4 amino acids at each site using site direct mutagenesis in a wild type EGFR expression vector was attempted. In the present invention, first, a vector with three amino acids of NPG added to the D770_N771 site with the highest frequency was used, and Ba/F3 cell line was used for expression of these genes.
When the oncogenic mutant EGFR is expressed, dependence on the mutant EGFR for cell growth and apoptosis occurs without IL-3. Therefore, substances that show effective inhibition of mutant EGFR suppress cell growth and induce apoptosis, so the anticancer effect of cells was analyzed through MTT assay.
1×10^4 cells of the previously constructed stable cells were put into a 96 well plate and incubated overnight, and then the compound of Example was dose dependently treated. After 72 hours, MTT reagent was added, and after 3 hours stop buffer (10% SDS) was added. After 24 hours of incubation, the results were analyzed by reading at 595 nm. […] As a control drug, Mobocertinib was used.
Background: Tetrazolium assays rely on reduction of a dye to a coloured formazan, in cell work by metabolically active cells.
On to `C=CC(=O)Nc1cc(Nc2cc(Nc3ccccc3-n3cccn3)ncn2)c(OC)cc1N(C)CCN(C)C` [Example 2, N-(5-((6-((2-(1H-pyrazol-1-yl)phenyl)amino)pyrimidin-4-yl)amino)-2-((2-(dimethylamino)ethyl)(methyl)amino)-4-methoxyphenyl)acrylamide], for which the GI50 was under 25 nM.
As for `C=CC(=O)Nc1cc(Nc2ncc(C(=O)OC(C)C)c(Nc3ccccc3-c3ccn(C)n3)n2)c(OC)cc1N(C)[C@H]1CCN(C)C1` [Example 28, Isopropyl(S)-2-((5-acrylamido-2-methoxy-4-(methyl(1-methylpyrrolidin-3-yl)amino)phenyl)amino)-4-((2-(1-methyl-1H-pyrazol-3-yl)phenyl)amino)pyrimidin-5-carboxylate], the figure is 25 to 50 nM.
Then `C=CC(=O)Nc1cc(Nc2cc(Nc3ccccc3-c3ccn(C)n3)ncn2)c(OC)cc1N(C)[C@H]1CCN(C)C1` [Example 9, (S)-N-(4-methoxy-2-(methyl(1-methylpyrrolidin-3-yl)amino)-5-((6-((2-(1-methyl-1H-pyrazol-3-yl)phenyl)amino)pyrimidin-4-yl)amino)phenyl)acrylamide], with 25 to 50 nM; and `C=CC(=O)Nc1cc(Nc2ncc(C(=O)OC(C)C)c(Nc3ccccc3-c3ccn(C)n3)n2)c(OC)cc1N(C)CCN(C)C` [Example 16, Isopropyl 2-((5-acrylamido-4-((2-(dimethylamino)ethyl)(methyl)amino)-2-methoxyphenyl)amino)-4-((2-(1-methyl-1H-pyrazol-3-yl)phenyl)amino)pyrimidin-5-carboxylate], with under 25 nM.
As for `C=CC(=O)Nc1cc(Nc2ncc(C(=O)OC(C)C)c(Nc3ccccc3-c3ccn(C)n3)n2)c(OC)cc1N(C)[C@@H]1CCN(C)C1` [Example 27, Isopropyl(R)-2-((5-acrylamido-2-methoxy-4-(methyl(1-methylpyrrolidin-3-yl)amino)phenyl)amino)-4-((2-(1-methyl-1H-pyrazol-3-yl)phenyl)amino)pyrimidin-5-carboxylate], the figure is 25 to 50 nM.
For the molecule `C=CC(=O)Nc1cc(Nc2cc(Nc3ccccc3-c3ccn(C)n3)ncn2)c(OC)cc1N1CC[C@H](N(C)C)C1` [Example 6, (S)-N-(2-(3-(dimethylamino)pyrrolidin-1-yl)-4-methoxy-5-((6-((2-(1-methyl-1H-pyrazol-3-yl)phenyl)amino)pyrimidin-4-yl)amino)phenyl)acrylamide], the GI50 lay within 25 to 50 nM.
Then `C=CC(=O)Nc1cc(Nc2cc(Nc3ccccc3-c3ccn(C)n3)ncn2)c(OC)cc1N(C)[C@@H]1CCN(C)C1` [Example 8, (R)-N-(4-methoxy-2-(methyl(1-methylpyrrolidin-3-yl)amino)-5-((6-((2-(1-methyl-1H-pyrazol-3-yl)phenyl)amino)pyrimidin-4-yl)amino)phenyl)acrylamide], with 25 to 50 nM.
Turning to `C=CC(=O)Nc1cc(Nc2ncc(C#N)c(Nc3ccccc3-c3ccn(C)n3)n2)c(OC)cc1N(C)CCN(C)C` [Example 13, N-(5-((5-cyano-4-((2-(1-methyl-1H-pyrazol-3-yl)phenyl)amino)pyrimidin-2-yl)amino)-2-((2-(dimethylamino)ethyl)(methyl)amino)-4-methoxyphenyl)acrylamide], the GI50 is 25 to 50 nM.
Then `C=CC(=O)Nc1cc(Nc2ncc(C(=O)OC(C)C)c(Nc3ccccc3-c3ccn(C)n3)n2)c(OC)cc1N1CCOCC1` [Example 24, Isopropyl 2-((5-acrylamido-2-methoxy-4-morpholinophenyl)amino)-4-((2-(1-methyl-1H-pyrazol-3-yl)phenyl)amino)pyrimidin-5-carboxylate], with 25 to 50 nM.
As to `C=CC(=O)Nc1cc(Nc2ncc(Cl)c(Nc3ccccc3-c3ccn(C)n3)n2)c(OC)cc1N(C)[C@@H]1CCN(C)C1` [Example 35, (R)-N-(5-((5-chloro-4-((2-(1-methyl-1H-pyrazol-3-yl)phenyl)amino)pyrimidin-2-yl)amino)-4-methoxy-2-(methyl(1-methylpyrrolidin-3-yl)amino)phenyl)acrylamide], the GI50 was in the range of 25 to 50 nM.
As for `C=CC(=O)Nc1cc(Nc2ncc(C(=O)OC)c(Nc3ccccc3-n3cccn3)n2)c(OC)cc1N(C)CCN(C)C` [Example 19, methyl 4-((2-(1H-pyrazol-1-yl)phenyl)amino)-2-((5-acrylamido-4-((2-(dimethylamino)ethyl)(methyl)amino)-2-methoxyphenyl)amino)pyrimidin-5-carboxylate], the figure is 25 to 50 nM; as for `C=CC(=O)Nc1cc(Nc2ncc(C(=O)OC(C)C)c(Nc3ccccc3-c3ccn(C)n3)n2)c(OC)cc1N1CC[C@H](N(C)C)C1` [Example 25, Isopropyl(S)-2-((5-acrylamido-4-(3-(dimethylamino)pyrrolidin-1-yl)-2-methoxyphenyl)amino)-4-((2-(1-methyl-1H-pyrazol-3-yl)phenyl)amino)pyrimidin-5-carboxylate], 25 to 50 nM; as for `C=CC(=O)Nc1cc(Nc2cc(Nc3ccccc3-c3ccn(C)n3)ncn2)c(OC2CC2)cc1N(C)CCN(C)C` [Example 12, N-(4-cyclopropoxy-2-((2-(dimethylamino)ethyl)(methyl)amino)-5-((6-((2-(1-methyl-1H-pyrazol-3-yl)phenyl)amino)pyrimidin-4-yl)amino)phenyl)acrylamide], 25 to 50 nM.
Then `C=CC(=O)Nc1cc(Nc2cc(Nc3ccccc3-c3ccn(C)n3)ncn2)c(OC)cc1N(C)CCN(C)C` [Example 1, N-(2-((2-(dimethylamino)ethyl)(methyl)amino)-4-methoxy-5-((6-((2-(1-methyl-1H-pyrazol-3-yl)phenyl)amino)pyrimidin-4-yl)amino)phenyl)acrylamide], with under 25 nM; and `C=CC(=O)Nc1cc(Nc2ncc(Cl)c(Nc3ccccc3-c3ccn(C)n3)n2)c(OC)cc1N1CC[C@H](N(C)C)C1` [Example 33, (S)-N-(5-((5-chloro-4-((2-(1-methyl-1H-pyrazol-3-yl)phenyl)amino)pyrimidin-2-yl)amino)-2-(3-(dimethylamino)pyrrolidin-1-yl)-4-methoxyphenyl)acrylamide], with 25 to 50 nM.
